Data published in patent US11274214B2, “Composition of water based coating with a low content of volatile organic compounds and high resistance to dirt handle, and, use of water based coating” (OXITENO S.A. INDÚSTRIA E COMÉRCIO, priority 2017, dated 2022).

How the values were obtained:
[1] = Estimated Hansen solubility parameters and octanol/water partition coefficient of coalescents
Source text: In order to perform the comparative tests, two commercially available products, Texanol™ and OPTIFILM 300™, were used.

[2] = Physical and chemical properties of isopentyl succinate

Substance: isopentyl succinate
- Solubility in water (suggested by octanol/water partition coefficients) [1]: low solubility in water
- Density [2]: 0.966 g/mL
- Freezing point [2]: −25 °C
- Relative evaporation rate [2]: 0.029
- Volatile content according to method 24 ([2]; method 24): 50%
